In US12263155B2, “Combinations of monoamine oxidase inhibitors and serotonin receptor agonists and their therapeutic use” (Remedi, Inc., priority 2022, dated 2025):

Tests used:
rat liver MAO-A = biological target: T1, rat liver MAO-A (Rattus norvegicus, UniProt P21396); assay: In vitro inhibition of rat liver MAO-A; format: biochemical
T1 construct: from tissue; host or cells: rat liver
T1 sequence (P21396 1-526): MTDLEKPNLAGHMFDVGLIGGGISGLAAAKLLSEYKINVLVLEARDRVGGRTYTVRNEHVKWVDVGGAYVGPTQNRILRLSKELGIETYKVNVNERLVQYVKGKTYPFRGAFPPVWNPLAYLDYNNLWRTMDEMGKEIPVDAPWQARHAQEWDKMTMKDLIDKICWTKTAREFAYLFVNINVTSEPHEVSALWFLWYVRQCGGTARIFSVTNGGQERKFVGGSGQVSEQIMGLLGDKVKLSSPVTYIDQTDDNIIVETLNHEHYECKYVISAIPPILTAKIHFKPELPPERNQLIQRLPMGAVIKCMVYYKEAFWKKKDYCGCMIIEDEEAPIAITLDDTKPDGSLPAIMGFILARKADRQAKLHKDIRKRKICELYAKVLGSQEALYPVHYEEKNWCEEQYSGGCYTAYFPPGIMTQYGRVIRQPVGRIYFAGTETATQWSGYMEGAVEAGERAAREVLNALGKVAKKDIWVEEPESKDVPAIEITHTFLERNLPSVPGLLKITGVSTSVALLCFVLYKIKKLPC
Description: […] The P2 fraction was prepared and was stored frozen until being thawed for use on the day of assay. Final concentrations of 50 μM [^14C]-serotonin (5-HT) and 10 μM [^14C]-phenylethylamine (PEA) were employed as specific substrates for MAO-A and MAO-B, respectively. Test compound inhibition was based on competition for oxidation of these radio-labeled substrates. MAO-A assay specificity was enhanced by inclusion of 0.1 μM deprenyl to prevent substrate oxidation by MAO-B. Likewise, MAO-B assays included 0.1 μM clorgyline to block MAO-A activity. […] Inhibition of enzymatic activities was expressed as IC50 and as the Ki, which was calculated using the Cheng-Prusoff equation.

[1] = Exemplary administration of CX157, DMT and combinations: subjective effects; format: in vivo; settings: 175 mg CX157 alone
Description: Administration Example 1: Subjects are administered 175 mg CX157 alone.
Administration Example 2: Subjects are administered 25 mg, 37.5 mg, 50 mg, 75 mg, or 100 mg DMT freebase in a capsule.
Administration Example 3: Subjects are administered 175 mg CX157, and then from between 2-3 hours later, such as at 2 hours 40 minutes later, a dose of 0.03 mg/kg, 0.05 mg/kg, or 0.07 mg/kg DMT freebase in capsule. Alternatively, subjects are administered a capsule containing 2.5 mg, 3.75 mg, 5 mg, 7.5 mg, 10 mg, 12.5 mg, 15 mg, 17.5 mg, or 20 mg DMT freebase.
Administration Example 4: Subjects are administered 175 mg CX157, and then from between 2-3 hours later, such as at 2 hours 15 minutes later, a dose of 0.2 mg/kg, 0.4 mg/kg, or 0.6 mg/kg DMT freebase in capsule. Alternatively, subjects are administered a capsule containing 25 mg, 37.5 mg, 50 mg, 75 mg, 100 mg, 125 mg, 150 mg, 175 mg, or 200 mg DMT freebase. At lower doses of DMT, subjects report effects that are relaxing, comforting, and “warm,” and describe mildly mood-elevating and anxiolytic properties. […]

[2] = Plasma and brain CX157 concentrations after oral dosing in rats; settings: rat; for Kp at 2 h / Kp at 4 h / Kp at 8 h / Kp at 18 h / Kp at 24 h / concentration at 0 h / concentration at 2 h / concentration at 4 h / concentration at 8 h / concentration at 18 h / concentration at 24 h: male, Sprague-Dawley, po
[3] = brain and plasma, 5 mg/kg, mean brain/plasma ratio of CX157 concentrations, 5 mg/kg oral
[4] = brain and plasma, 10 mg/kg, mean brain/plasma ratio of CX157 concentrations, 10 mg/kg oral
[5] = brain/plasma, 1 mg/kg, mean brain/plasma ratio of CX157 concentrations, 1 mg/kg oral

O=S1(=O)c2ccc(F)cc2Oc2cc(OCC(F)(F)F)ccc21 [CX157, 3-fluoro-7(2,2,2-trifluorethoxy)phenoxathiine-10,10-dioxide]
Ki for CX157/Ki for RO-41-1049 (rat liver MAO-A; Liver MAO-A): 0.126 | IC50 (rat liver MAO-A; rat liver, 50 μM [14C]-5-HT): 2.22 nM | Ki (rat liver MAO-A; rat liver, Cheng-Prusoff): 0.91 nM | antidepressant activity [1]: no significant antidepressant activity | Kp at 2 h [2, 3]: 2.5 | Kp at 4 h ([2]; brain and plasma, 5 mg/kg, mean brain/plasma ratio of CX157 concentrations, 5 mg/kg oral, 4 h): 2.2 | Kp at 8 h [2, 3]: 5 | Kp at 18 h [2, 3]: 3.7 | Kp at 24 h [2, 3]: 7.4 | Kp at 2 h [2, 4]: 3.1 | Kp at 4 h ([2]; brain and plasma, 10 mg/kg, mean brain/plasma ratio of CX157 concentrations, 10 mg/kg oral, 4 h): 1.9 | Kp at 8 h [2, 4]: 2.2 | Kp at 18 h [2, 4]: 7.2 | Kp at 24 h [2, 4]: 8.5 | concentration at 0 h ([2]; brain, 1 mg/kg): 0 ng/mL | concentration at 2 h ([2]; brain, 1 mg/kg): 103 ng/mL | concentration at 4 h ([2]; brain, 1 mg/kg): 71.7 ng/mL | concentration at 8 h ([2]; brain, 1 mg/kg): 76.5 ng/mL | concentration at 18 h ([2]; brain, 1 mg/kg): 17.3 ng/mL | concentration at 24 h ([2]; brain, 1 mg/kg): 13.2 ng/mL | concentration at 0 h ([2]; brain, 5 mg/kg): 0 ng/mL | concentration at 2 h ([2]; brain, 5 mg/kg): 447 ng/mL | concentration at 4 h ([2]; brain, 5 mg/kg): 386 ng/mL | concentration at 8 h ([2]; brain, 5 mg/kg): 535 ng/mL | concentration at 18 h ([2]; brain, 5 mg/kg): 140 ng/mL | concentration at 24 h ([2]; brain, 5 mg/kg): 85.8 ng/mL | concentration at 0 h ([2]; brain, 10 mg/kg): 0 ng/mL | concentration at 2 h ([2]; brain, 10 mg/kg): 387 ng/mL | concentration at 4 h ([2]; brain, 10 mg/kg): 513 ng/mL | concentration at 8 h ([2]; brain, 10 mg/kg): 540 ng/mL | concentration at 18 h ([2]; brain, 10 mg/kg): 56.6 ng/mL | concentration at 24 h ([2]; brain, 10 mg/kg): 86.6 ng/mL | Kp at 4 h ([2]; brain/plasma, 1 mg/kg, brain concentration higher than plasma concentration, e.g. 4 hours after a 1 mg/kg oral dose): ≤ 10 | Kp at 2 h [2, 5]: 7.4 | Kp at 4 h ([2]; brain/plasma, 1 mg/kg, mean brain/plasma ratio of CX157 concentrations, 1 mg/kg oral, 4 h): 10.3 | Kp at 8 h [2, 5]: 6.5 | Kp at 18 h [2, 5]: 5.7 | Kp at 24 h [2, 5]: 4.8 | concentration at 0 h ([2]; plasma, 1 mg/kg): 0 ng/mL | concentration at 2 h ([2]; plasma, 1 mg/kg): 20 ng/mL | concentration at 4 h ([2]; plasma, 1 mg/kg): 9.9 ng/mL | concentration at 8 h ([2]; plasma, 1 mg/kg): 13.4 ng/mL | concentration at 18 h ([2]; plasma, 1 mg/kg): 4.5 ng/mL | concentration at 24 h ([2]; plasma, 1 mg/kg): 3.2 ng/mL | concentration at 0 h ([2]; plasma, 5 mg/kg): 0 ng/mL | concentration at 2 h ([2]; plasma, 5 mg/kg): 184 ng/mL | concentration at 4 h ([2]; plasma, 5 mg/kg): 214 ng/mL | concentration at 8 h ([2]; plasma, 5 mg/kg): 189 ng/mL | concentration at 18 h ([2]; plasma, 5 mg/kg): 26.8 ng/mL | concentration at 24 h ([2]; plasma, 5 mg/kg): 14.3 ng/mL | concentration at 0 h ([2]; plasma, 10 mg/kg): 0 ng/mL | concentration at 2 h ([2]; plasma, 10 mg/kg): 158 ng/mL | concentration at 4 h ([2]; plasma, 10 mg/kg): 412 ng/mL | concentration at 8 h ([2]; plasma, 10 mg/kg): 257 ng/mL | concentration at 18 h ([2]; plasma, 10 mg/kg): 8.5 ng/mL | concentration at 24 h ([2]; plasma, 10 mg/kg): 5.4 ng/mL | blood-brain-barrier penetration ([2]; oral): penetrated the blood-brain-barrier | time of maximum plasma levels ([2]; oral 1, 5, 10 mg/kg): two to four hours | pharmacokinetic half-life in brain versus plasma ([2]; oral, particularly 10 mg/kg): longer pharmacokinetic half-life in the brain than in plasma
